Assay results published in US10125139B2, “Pesticidally active polycyclic derivatives with sulfur substituted five-membered ring heterocycles” (Syngenta Participations AG, priority 2015, dated 2018).

Tests used:
Format in all cases: in vivo
[1] = test system: Diabrotica balteata (Corn Root Worm); assay: Example B2: Diabrotica balteata, sprayed maize sprouts, L2 larvae; settings: Diabrotica balteata, 96 h; application rate of 200 ppm; 4 days after infestation; L2 larvae; read-out: effect in at least one of the two categories (mortality or growth inhibition)
Protocol: Example B2: Diabrotica balteata (Corn Root Worm)
Maize sprouts placed onto an agar layer in 24-well microtiter plates were treated with aqueous test solutions prepared from 10,000 ppm DMSO stock solutions by spraying. After drying, the plates were infested with L2 larvae (6 to 10 per well). The samples were assessed for mortality and growth inhibition in comparison to untreated samples 4 days after infestation. The following compounds gave an effect of at least 80% in at least one of the two categories (mortality or growth inhibition) at an application rate of 200 ppm:
(§1) Insecticidal action against Diabrotica balteata (Corn root worm), Plutella xylostella (Diamond black moth), and Spodoptera littoralis (Egyptian cotton leaf worm). The tests were carried out as described in biological examples B2, B8 and B9, respectively, with the larval feeding/contact activity (mortality only) being reported as Breakpoint (BP80) values in parts per million (i.e. the lowest concentration which gives 80% larval mortality).

[2] = test system: Myzus persicae (Green Peach Aphid); assay: Example B5: Myzus persicae feeding/contact activity, sunflower leaf discs; settings: foliar, 144 h, application rate of 200 ppm, 6 days after infestation
Protocol: Example B5: Myzus persicae (Green Peach Aphid): Feeding/Contact Activity
Sunflower leaf discs were placed onto agar in a 24-well microtiter plate and sprayed with aqueous test solutions prepared from 10,000 ppm DMSO stock solutions. After drying, the leaf discs were infested with an aphid population of mixed ages. The samples were assessed for mortality 6 days after infestation.

[3] = test system: Plutella xylostella (Diamond Back Moth); assay: Example B8: Plutella xylostella, artificial diet, L2 larvae; settings: Plutella xylostella, 120 h; application rate of 200 ppm; 5 days after infestation; L2 larvae; read-out: effect in at least one of the two categories (mortality or growth inhibition)
Protocol: Example B8: Plutella xylostella (Diamond Back Moth)
24-well microtiter plates with artificial diet were treated with aqueous test solutions prepared from 10,000 ppm DMSO stock solutions by pipetting. After drying, the plates were infested with L2 larvae (10 to 15 per well). The samples were assessed for mortality and growth inhibition in comparison to untreated samples 5 days after infestation. The following compounds gave an effect of at least 80% in at least one of the two categories (mortality or growth inhibition) at an application rate of 200 ppm:
as §1

[4] = test system: Spodoptera littoralis (Egyptian Cotton Leaf Worm); assay: Example B9: Spodoptera littoralis, cotton leaf discs, L1 larvae; settings: Spodoptera littoralis, foliar, 72 h; application rate of 200 ppm; 3 days after infestation; L1 larvae
Protocol: Example B9: Spodoptera littoralis (Egyptian Cotton Leaf Worm)
Cotton leaf discs were placed onto agar in 24-well microtiter plates and sprayed with aqueous test solutions prepared from 10,000 ppm DMSO stock solutions. After drying the leaf discs were infested with five L1 larvae. The samples were assessed for mortality, anti-feeding effect, and growth inhibition in comparison to untreated samples 3 days after infestation. Control of Spodoptera littoralis by a test sample is given when at least one of the categories mortality, anti-feedant effect, and growth inhibition is higher than the untreated sample.
as §1

[5] = test system: Spodoptera littoralis (Egyptian Cotton Leaf Worm); assay: Example B10: Spodoptera littoralis systemic activity, lettuce grown on treated agar; settings: 144 h, test rate of 12.5 ppm, 6 days after infestation, read-out: effect in at least one of the three categories (mortality, anti-feeding, or growth inhibition)
Text: Example B10: Spodoptera littoralis (Egyptian Cotton Leaf Worm) Systemic Activity
Test compounds were applied by pipette from 10,000 ppm DMSO stock solutions into 24-well plates and mixed with agar. Lettuce seeds were placed onto the agar and the multi well plate was closed by another plate which contained also agar. After 7 days the compound was absorbed by the roots and the lettuce grew into the lid plate. The lettuce leaves were then cut off into the lid plate. Spodoptera eggs were pipetted through a plastic stencil onto a humid gel blotting paper and the lid plate was closed with it. The samples were assessed for mortality, anti-feedant effect and growth inhibition in comparison to untreated samples 6 days after infestation. The following compounds gave an effect of at least 80% in at least one of the three categories (mortality, anti-feeding, or growth inhibition) at a test rate of 12.5 ppm: […]

[6] = test system: Tetranychus urticae (Two-Spotted Spider Mite); assay: Example B11: Tetranychus urticae feeding/contact activity, bean leaf discs; settings: foliar, 192 h
Protocol: Example B11: Tetranychus urticae (Two-Spotted Spider Mite): Feeding/Contact Activity
Bean leaf discs on agar in 24-well microtiter plates were sprayed with aqueous test solutions prepared from 10,000 ppm DMSO stock solutions. After drying the leaf discs were infested with a mite population of mixed ages. The samples were assessed for mortality on mixed population (mobile stages) 8 days after infestation.

[7] = test system: Euschistus heros (Neotropical Brown Stink Bug); assay: Example B3: Euschistus heros, sprayed soybean leaves, N2 nymphs; settings: 120 h, application rate of 200 ppm, 5 days after infestation, read-out: effect in at least one of the two categories (mortality or growth inhibition)
Protocol: Example B3: Euschistus heros (Neotropical Brown Stink Bug)
Soybean leaves on agar in 24-well microtiter plates were sprayed with aqueous test solutions prepared from 10,000 ppm DMSO stock solutions. After drying the leaves were infested with N2 nymphs. The samples were assessed for mortality and growth inhibition in comparison to untreated samples 5 days after infestation. The following compounds gave an effect of at least 80% in at least one of the two categories (mortality or growth inhibition) at an application rate of 200 ppm: […]

[8] = test system: Myzus persicae (Green Peach Aphid); assay: Example B7: Myzus persicae intrinsic activity, sucrose solution through Parafilm; settings: 120 h, test rate of 12 ppm, 5 days after infestation
Text: Example B7: Myzus persicae (Green Peach Aphid). Intrinsic Activity
Test compounds prepared from 10,000 ppm DMSO stock solutions were applied by pipette into 24-well microtiter plates and mixed with sucrose solution. The plates were closed with a stretched Parafilm. A plastic stencil with 24 holes was placed onto the plate and infested pea seedlings were placed directly on the Parafilm. The infested plate was closed with a gel blotting paper and another plastic stencil and then turned upside down. The samples were assessed for mortality 5 days after infestation.

[9] = test system: Frankliniella occidentalis (Western Flower thrips); assay: Example B4: Frankliniella occidentalis feeding/contact activity, sunflower leaf discs; settings: foliar, 168 h, application rate of 200 ppm, 7 days after infestation, population of mixed ages
Protocol: Example B4: Frankliniella occidentalis (Western Flower thrips): Feeding/Contact Activity
Sunflower leaf discs were placed on agar in 24-well microtiter plates and sprayed with aqueous test solutions prepared from 10,000 DMSO stock solutions. After drying the leaf discs were infested with a Frankliniella population of mixed ages. The samples were assessed for mortality 7 days after infestation.

[10] = test system: Myzus persicae (Green Peach Aphid); assay: Example B6: Myzus persicae systemic activity, pea seedling roots in test solution; settings: 144 h, test rate of 24 ppm, 6 days after placing seedlings into test solutions
Protocol: Example B6: Myzus persicae (Green Peach Aphid). Systemic Activity
Roots of pea seedlings infested with an aphid population of mixed ages were placed directly into aqueous test solutions prepared from 10,000 DMSO stock solutions. The samples were assessed for mortality 6 days after placing seedlings into test solutions.

[11] = test system: Bemisia tabaci (Cotton White Fly); assay: Example B1: Bemisia tabaci feeding/contact activity, cotton leaf discs; settings: foliar, 144 h, application rate of 200 ppm, 6 days after incubation, adult white flies
Protocol: Example B1: Bemisia tabaci (Cotton White Fly): Feeding/Contact Activity
Cotton leaf discs were placed on agar in 24-well microtiter plates and sprayed with aqueous test solutions prepared from 10,000 ppm DMSO stock solutions. After drying the leaf discs were infested with adult white flies. The samples were checked for mortality 6 days after incubation.

CCS(=O)(=O)c1cc(I)sc1-c1nc2cc(C(F)(F)F)ncc2n1C [Example I-1, 2-(3-ethylsulfonyl-5-iodo-2-thienyl)-3-methyl-6-(trifluoromethyl)imidazo[4,5-c]pyridine]
≥ 80%: percent effect (mortality or growth inhibition) at 200 ppm [1] | mortality at 200 ppm [2] | percent effect (mortality or growth inhibition) at 200 ppm [3] | percent control (mortality, anti-feedant effect or growth inhibition) at 200 ppm [4] | percent effect (mortality, anti-feeding or growth inhibition) at 12.5 ppm [5] | mortality at 200 ppm [6]

CCSc1cc(I)sc1-c1nc2cc(SC(F)(F)F)ncc2n1C [Example I-7, 2-(3-ethylsulfanyl-5-iodo-2-thienyl)-3-methyl-6-(trifluoromethylsulfanyl)imidazo[4,5-c]pyridine]
≥ 80%: percent effect (mortality or growth inhibition) at 200 ppm [1] | percent effect (mortality or growth inhibition) at 200 ppm [7] | mortality at 200 ppm [2] | mortality at 12 ppm [8] | percent effect (mortality or growth inhibition) at 200 ppm [3] | percent effect (mortality, anti-feeding or growth inhibition) at 12.5 ppm [5]

CCSc1cc(-c2ccc(Cl)cc2)sc1-c1nc2cc(C(F)(F)F)ncc2n1C [Example P-6, 2-[5-(4-chlorophenyl)-3-ethylsulfanyl-2-thienyl]-3-methyl-6-(trifluoromethyl)imidazo[4,5-c]pyridine]
≥ 80%: percent effect (mortality or growth inhibition) at 200 ppm [1] | percent effect (mortality or growth inhibition) at 200 ppm [7] | mortality at 200 ppm [9] | percent effect (mortality or growth inhibition) at 200 ppm [3] | percent control (mortality, anti-feedant effect or growth inhibition) at 200 ppm [4] | mortality at 200 ppm [6]

CCS(=O)(=O)c1nc(-c2ncccn2)sc1-c1nc2cc(C(F)(F)F)ncc2n1C [Example P-9, 4-ethylsulfonyl-5-[3-methyl-6-(trifluoromethyl)imidazo[4,5-c]pyridin-2-yl]-2-pyrimidin-2-yl-thiazole]
≥ 80%: mortality at 24 ppm [10]

CCS(=O)(=O)c1nc(C2CC2)sc1-c1nc2cc(C(F)(F)F)ncc2n1C [Example P-13, 2-cyclopropyl-4-ethylsulfonyl-5-[3-methyl-6-(trifluoromethyl)imidazo[4,5-c]pyridin-2-yl]thiazole]
≥ 80%: percent effect (mortality or growth inhibition) at 200 ppm [1] | mortality at 200 ppm [2] | mortality at 24 ppm [10] | percent effect (mortality or growth inhibition) at 200 ppm [3] | percent control (mortality, anti-feedant effect or growth inhibition) at 200 ppm [4] | percent effect (mortality, anti-feeding or growth inhibition) at 12.5 ppm [5]

CCSc1nc(C2CC2)sc1-c1nc2cc(C(F)(F)F)ncc2n1C [Example P-14, 2-cyclopropyl-4-ethylsulfanyl-5-[3-methyl-6-(trifluoromethyl)imidazo[4,5-c]pyridin-2-yl]thiazole]
≥ 80%: mortality at 200 ppm [11] | percent effect (mortality or growth inhibition) at 200 ppm [1] | mortality at 200 ppm [2] | mortality at 12 ppm [8] | percent effect (mortality or growth inhibition) at 200 ppm [3] | percent control (mortality, anti-feedant effect or growth inhibition) at 200 ppm [4]
